Experimental data as given in patent publication US10662198B2, “Polymorphic form of compound, preparation method and use thereof” (QILU PHARMACEUTICAL CO., LTD., priority 2017, dated 2020).

What was measured:
Format in all cases: physicochemical
[1] = Stability test at room temperature; conditions: for Purity after 180 days / Crystalline form after 180 days: sealed medicinal low density polyethylene bags; for Purity after 180 days: HPLC; for Crystalline form after 180 days: XRPD
Excerpt: The crystalline form II prepared in example 2, crystalline form IV prepared in example 4, crystalline form VI prepared in example 8, and crystalline form VII prepared in example 10 were respectively placed in medicinal low density polyethylene bags, sealed, and maintained at room temperature for 180 days, detected by PANalytical X-ray powder diffractometer for its XRPD, and by high performance liquid chromatography for its purity.

[2] = Stability test at high temperature
Experimental: The crystalline form II prepared in example 2 was subjected to a stability test at 60° C., and the results were shown in Table 7 below.

[3] = Stability test under high humidity
Excerpt: The crystalline form IV prepared in example 4 was subjected to a stability test at 92.5% RH, and the results were shown in Table 8 below.

SMILES | purity and crystalline form after 180 days (in words) [1] | Purity after 180 days [1] [%] | Crystalline form after 180 days [1] | HPLC purity (%) Initial ([2]; 60° C. test, initial) [%] | Crystalline form After 10 days ([2]; 60° C., after 10 days) | HPLC purity (%) After 10 days ([2]; 60° C., after 10 days) [%] | change in purity and crystalline form (in words) ([2]; high temperature condition, 10 days) | HPLC purity (%) Initial ([3]; 92.5% RH test, initial) [%] | HPLC purity (%) After 10 days ([3]; 92.5% RH, after 10 days) [%] | change in purity and crystal form (in words) ([3]; high humidity condition, 10 days) | purity, color, and properties on preservation at high humidity (in words) ([3]; relative humidity of up to 92.5% RH)
COC(=O)C1=C2C[C@H](NS(N)(=O)=O)CN2C(c2nccs2)=N[C@H]1c1ccc(F)c(F)c1F [Crystalline form II, methyl (3R,6S)-6-aminosulfonylamino-1-(thiazol-2-yl)-3-(2,3,4-trifluorophenyl)-3,5,6,7-tetrahydropyrrolo[1,2-c]pyrimidin-4-formate] | remained unchanged | 99.5 | unchanged | 96.8 | crystalline form unchanged | 96.6 | no change in purity and crystalline form |  |  |  | 
COC(=O)C1=C2C[C@H](NS(N)(=O)=O)CN2C(c2nccs2)=N[C@H]1c1ccc(F)c(F)c1F [Crystalline form IV, methyl (3R,6S)-6-aminosulfonylamino-1-(thiazol-2-yl)-3-(2,3,4-trifluorophenyl)-3,5,6,7-tetrahydropyrrolo[1,2-c]pyrimidin-4-formate] | remained unchanged | 99.3 | unchanged |  |  |  |  | 99.2 | 99.1 | no change in purity and crystal form | purity, color, and properties unchanged
COC(=O)C1=C2C[C@H](NS(N)(=O)=O)CN2C(c2nccs2)=N[C@H]1c1ccc(F)c(F)c1F [Crystalline form VI, methyl (3R,6S)-6-aminosulfonylamino-1-(thiazol-2-yl)-3-(2,3,4-trifluorophenyl)-3,5,6,7-tetrahydropyrrolo[1,2-c]pyrimidin-4-formate] | remained unchanged | 99.7 | unchanged |  |  |  |  |  |  |  | 
COC(=O)C1=C2C[C@H](NS(N)(=O)=O)CN2C(c2nccs2)=N[C@H]1c1ccc(F)c(F)c1F [Crystalline form VII, methyl (3R,6S)-6-aminosulfonylamino-1-(thiazol-2-yl)-3-(2,3,4-trifluorophenyl)-3,5,6,7-tetrahydropyrrolo[1,2-c]pyrimidin-4-formate] | remained unchanged | 99.5 | unchanged |  |  |  |  |  |  |  | 
